Legend:
[1] = tested on: human glioma cells U-251; assay: 4-hr 51Cr-release assay, peptide-induced CTL lines against glioma cells; type: cell-based; conditions: each E/T ratio, FIG. 3
Experimental: CD8+ cells derived from an HLA-A2+ glioma patient were stimulated with native IL-13Rα2345-353 (●), IL-13Rα2-V9 (∘), IL-13Rα2-A1V9 (Δ), or IL-13Rα2-E1V9 (X). On day 10, the cells were tested for lytic ability against human glioma cells SNB19 (A) and U-251 (B) (both are IL-13Rα+/HLA-A2+) using 4-Hr ^51 Cr-release assay. Against SNB19 glioma cells, p<0.05 at all E/T ratios for IL-13Rα2-V9 vs. native IL-13Rα2345-353 as well as IL-13Rα2-A1V9 vs. native IL-13Rα2345-353 by two-tailed Student-t tests. Against U251 glioma cells, p<0.05 at E/T ratio of 10 and 40 for IL-13Rα2-V9 vs. native IL-13Rα2345-353 as well as IL-13Rα2-A1V9 vs. native IL-13Rα2345-353 by two-tailed Student-t tests. […] The data presented represent one of three experiments with different donors with similar results.
(§1) The ability of modified peptides, such as IL-13Rα2-V9, to enhance the CTL activity against HLA-A2+ human glioma cells that endogenously expressed and presented IL-13Rα2-derived epitopes was examined. Human glioma cell lines U251 and SNB19 express HLA-A2 and IL-13Rα2, whereas human glioma cell line A172 expresses IL-13Rα2 but not HLA-A2 (Okano et al., 2002).
(§2) The lytic ability of the peptide-induced CTL lines against these glioma cells was examined using 4-hr ^51Cr-release assays.

[2] = tested on: EL4-HHD-IL-13Rα2 cells; assay: Immunization of HHD mice, spleen cell cytotoxicity (4 hr 51Cr-release); type: in vivo; conditions: for specific CTL activity against EL4-HHD-IL-13Rα2 cells: 100 μg peptide s.c. in IFA with HBVcore128-140, FIG. 7; for magnitude of CTL activities in comparison to native IL-13Rα2345-353 against EL4-HHD-IL-13Rα2 cells: p<0.05 at all effector/target ratios
Experimental: (§3) Control animals received IFA containing HBV helper-peptide only. Eleven days after the last immunization, the animals were sacrificed, and 5×10^6 spleen cells (SPCs) were stimulated in vitro with the same peptide that was used for in vivo stimulation (10 μM). On day 6 of culture, the bulk populations were tested for specific cytotoxicity against the EL4-HHD cells expressing IL-13Rα2 or EL4-HHD pulsed with IL-13 Rα2345-353.
(§4) EL4-HHD-IL-13Rα2 and EL4-HHD were labeled with 100 μCi of ^51Cr for 60 min, plated in 96-well V-bottomed plates (3×10^3 cell/well). Labeled EL4-HHD were pulsed with IL-13Rα2345-353 (1 μM) at 37° C. for 2 h. Control target cells were pulsed with no peptides. Stimulated SPCs were then added as effector cells and incubated at 37° C. for 4 h. One hundred μl of supernatant were collected and radioactivity measured in a gamma counter.

[3] = tested on: T2 cells loaded with the wild type IL-13Rα2345-353; assay: 4-hr 51Cr-release assay, peptide-induced CTL lines against peptide-loaded T2 cells; type: cell-based, human; conditions: for lysis of T2 target cells pulsed with 100 ng/ml wild type IL-13Rα2345-353 by peptide-stimulated T cells: CD8+ T cells of HLA-A*0201+ glioma patients stimulated with peptide-pulsed DCs, day 10, FIG. 1; for magnitude of CTL reactivity against T2 cells loaded with native IL-13Rα2345-353 compared with native or IL-13Rα2-E1V9: E/T ratio 12.5, P<0.01 vs native at 0.1 and 1 nM, FIG. 1
[4] = tested on: human glioma cells SNB19; assay: 4-hr 51Cr-release assay, peptide-induced CTL lines against glioma cells; type: cell-based; conditions: for lysis of SNB19 in comparison to the native IL-13Rα2345-353 peptide: each E/T ratio, FIG. 3; for anti-SNB19 glioma cell lytic activities on addition of cold T2 cells pulsed IL-13Rα2345-353: cold target competition, FIG. 4
Experimental: CD8+ cells derived from an HLA-A2+ glioma patient were stimulated with native IL-13Rα2345-353 (●), IL-13Rα2-V9 (∘), IL-13Rα2-A1V9 (Δ), or IL-13Rα2-E1V9 (X). On day 10, the cells were tested for lytic ability against human glioma cells SNB19 (A) and U-251 (B) (both are IL-13Rα+/HLA-A2+) using 4-Hr ^51 Cr-release assay.
The CTL lines induced with each peptide (control (A); Flu (B); IL-13Rα2345-353 (C); IL-13Rα2345-9V (D)) were incubated for 4 h with ^51Cr-labeled human glioma cell lines SNB19 at the indicated E:T ratios for evaluation of specific lytic ability (●). For the cold target inhibition assay, ^51Cr-labeled target SNB19 cells (1×10^3 cells/well) and cold T2 cells (1×10^4 cells/well) pulsed with (Δ) or without (∘) peptide IL-13Rα2345-353 were incubated with the CTLs.
The CTL lines induced with each peptide (control (A); Flu (B); IL-13Rα2345-353 (C); IL-13Rα2345-9V (D)) were incubated for 4 h with ^51Cr-labeled human glioma cell line SNB19 at the indicated E:T ratios for evaluation of specific lytic ability (●). Anti-HLA-A2 antibody (W6/32; 10 μg/ml) was added to block the function of HLA-A2 mediated recognition by the T cells (a).
as §1, §2
To determine the specificity of the lytic activity, cold target competition experiments were performed by addition of non-radiolabeled (cold) T2 cells pulsed with IL-13Rα2345-353 peptide in the 4-h ^51Cr-release assay (FIG. 4).
Furthermore, anti-HLA-A2 antibody (W6/32) was used to block the HLA-A2 mediated signaling in the CTL reactivity.

[5] = biological target: T1, HLA-A2 (Homo sapiens, UniProt P04439, D140Y/D185E/D98H/E176V/E277Q/G131W/G231S/I119V/I121R/I166T/I218V/L300P/L318F/N151K/N90K/P208A/P217A/Q86G/Q94H/R138H/R169H/T345S); assay: HLA-A2 binding: surface expression of HLA-A2 on T2 cells by flow cytometry; conditions: 1 nM
T1 construct: expressed in transfected cells; host or cells: T2 cells
Experimental: The binding capability of these modified peptides was assessed using an HLA-A2 transfected T2 cell line. Aliquots of T2 cells were incubated with modified peptides or IL-13Rα2345-353 at 1 nM overnight, and then examined for the surface expression levels of HLA-A2 on T2 cells by flow cytometry. Since stable binding of HLA-A2 with peptide epitopes further stabilizes the surface expression of HLA-A2 (Francini et al., 2002; Alves et al., 2003), quantitative expression levels of HLA-A2, which is indicated by Mean Fluorescence Intensity (MFI) in Table 1, correlate with the binding affinity of the peptide-epitopes that are co-incubated with the T2 cells.

[6] = tested on: gp100; assay: IFN-γ ELISPOT on patient PBMC, phase I/II trial; type: in vivo, human; conditions: both dose levels combined, Wilcoxon test
Excerpt: This study was designed to assess toxicity and the induction of immune and preliminary clinical responses of vaccinations with GAA-loaded αDC1 and administration of poly-ICLC (Hiltonol®, Oncovir, Inc.). The first course of vaccines consisted of 4 ultrasound-guided intranodal (i.n.) administrations of 1 or 3×10^7 αDC1/injections every 2 weeks (FIG. 19) rotating each of inguinal and axillary lymph node clusters to minimize the potential effects of injection-induced trauma in the microenvironment of the lymph nodes by repeating injections in short periods. The first 10 evaluable patients received 1×10^7 αDC1/injection (Dose Level 1), then 9 received 3×10^7 αDC1/injection (Dose Level 2). All patients received intramuscular (i.m.) injections with poly-ICLC (20 μg/kg) twice/week for 8 weeks starting on day 1. […]
Enzyme-linked immunosorbent spot (ELISPOT) assays were performed as described previously (see, e.g., Kirkwood et al, Clin. Cancer Res., 15:1443-1451, 2009) with slight modifications. Briefly, batched PBMC samples were evaluated simultaneously following in vitro stimulation with autologous, irradiated PBMC loaded with wild-type IL-13Rα345-353, EphA2883-891, GP100209-217 and YKL-40202-211 for a week. […]

[7] = Toxicity assessment (NCI Common Toxicity Criteria version 3.0), phase I/II trial; type: in vivo, human; conditions: Patient 6, following the 154th injection of poly-ICLC
Excerpt: This study was designed to assess toxicity and the induction of immune and preliminary clinical responses of vaccinations with GAA-loaded αDC1 and administration of poly-ICLC (Hiltonol®, Oncovir, Inc.). The first course of vaccines consisted of 4 ultrasound-guided intranodal (i.n.) administrations of 1 or 3×10^7 αDC1/injections every 2 weeks (FIG. 19) rotating each of inguinal and axillary lymph node clusters to minimize the potential effects of injection-induced trauma in the microenvironment of the lymph nodes by repeating injections in short periods. The first 10 evaluable patients received 1×10^7 αDC1/injection (Dose Level 1), then 9 received 3×10^7 αDC1/injection (Dose Level 2). All patients received intramuscular (i.m.) injections with poly-ICLC (20 μg/kg) twice/week for 8 weeks starting on day 1. […] Starting at Week 13, these patients were treated with the same dose of additional vaccinations every 4 weeks to a maximum of 5 vaccine injections and i.m. poly-ICLC starting on the day of the first additional vaccine and twice/week (1st booster phase).
The trial was monitored continuously for treatment-related AE using National Cancer Institute Common Toxicity Criteria version 3.0. […]

[8] = solution 2 mg per cc, room temperature; cited from earlier work
[9] = tested on: preclinical brain tumor models; conditions: Zhu et al., J. Transl. Med., 5: 10, 2007; cited from earlier work
[10] = Salazar et al., Neurosurgery, 38: 1096-1103, 1996; cited from earlier work
[11] = tested on: human glioma cells expressing HLA-A2 and EphA2 protein; assay: 4-hr 51Cr-release assay, EphA2883-891-stimulated CD8+ T cells against glioma cells; type: cell-based; conditions: stimulation with peptide-loaded DCs for 10 days, FIG. 9
Experimental: CD8+ T cells from an HLA-A2+ glioma patients were stimulated with DCs loaded with EphA2883-891 for 10 days. These T cells were then tested for their lytic activity against human glioma cells SNB19 (HLA-A2+, EphA2+) (▴), U251 (HLA-A2+, EphA2+) (▪) and A172 (HLA-A2−, EphA2+) (▾) by 4-hr ^51Cr-release assay.
EphA2 is an attractive tumor-associated antigen and a target for tumor-vaccines, as 5 HLA-A2 and 3 DR4 T cell epitopes have been previously identified (Tatsumi et al., 2003).

[12] = tested on: EL4-HHD cells pulsed with the native IL-13Rα2345-353; assay: Immunization of HHD mice, spleen cell cytotoxicity (4 hr 51Cr-release); type: in vivo; conditions: 100 μg peptide s.c. in IFA with HBVcore128-140; difference not statistically significant; FIG. 6
Experimental: as §3, §4

Substance	lysis of U-251 in comparison to the native IL-13Rα2345-353 peptide [1]	specific CTL activity against EL4-HHD-IL-13Rα2 cells [2]	magnitude of CTL activities in comparison to native IL-13Rα2345-353 against EL4-HHD-IL-13Rα2 cells [2]	lysis of T2 target cells pulsed with 100 ng/ml wild type IL-13Rα2345-353 by peptide-stimulated T cells [3]	magnitude of CTL reactivity against T2 cells loaded with native IL-13Rα2345-353 compared with native or IL-13Rα2-E1V9 [3]	lysis of SNB19 in comparison to the native IL-13Rα2345-353 peptide [4]	binding affinity to HLA-A2 compared with the native IL-13Rα2345-353 [5]	anti-SNB19 glioma cell lytic activities on addition of cold T2 cells pulsed IL-13Rα2345-353 [4]	further results
ALPFGFILV (Amino acid residues 345-353 of Interleukin-13 Receptor alpha with mutation of W to A at position 345 and I to V at position 353) [A1V9]	higher levels of lysis	induced a specific CTL activity	higher magnitude	efficiently lysed	higher magnitude	higher levels of lysis	higher		
IMDQVPFSV (Amino acid residues 209-217 of GP100 with mutation of T to M at position 210) [gp100 epitope]									magnitude of IFN-γ ELISPOT response among the GAA peptides tested [6]: highest magnitude of response
Polyinosinic-Polycytidylic acid stabilized with polylysine and carboxymethylcellulose [poly-ICLC]									adverse event during the 2nd booster phase considered to be DLT [7]: grade 2 systemic urticaria; stability [8]: stable at room temperature for several days; effect on vaccine effects [9]: enhance the vaccine effects; safety [10]: safe
TLADFDPRV (Amino acid residues 883-891 of EphA2) [EphA2883-891]									anti-glioma CTL reactivity of CD8+ cells from HLA-A2+ glioma patients [11]: anti-glioma CTL reactivity has been induced
WLPFGFILI (Amino acid residues 345-353 of Interleukin-13 Receptor alpha) [Native, reference compound]		induced a specific CTL activity		efficiently lysed				almost completely inhibited	
WLPFGFILV (Amino acid residues 345-353 of Interleukin-13 Receptor alpha 2 with mutation of I to V at position 353) [V9, I was replaced with V at P9]	higher levels of lysis	induced a specific CTL activity	higher magnitude	efficiently lysed	higher magnitude	higher levels of lysis	higher	almost completely inhibited	CTL reactivity against EL4-HHD cells pulsed with the native peptide compared with other peptides examined [12]: trend toward higher levels of CTL reactivity; CTL activities against T2 cells loaded with IL-13Rα2345-353 compared with the wild type-induced CTL line ([3]; 1, 10 and 100 nM peptide, E/T ratio=50, FIG. 2): higher CTL activities; antigen-specific CTL response in comparison to the wild type IL-13Rα2345-353 ([3]; E/T ratio of 50, 25 and 12.5): significantly higher level

— patent US10874730B2, “Methods for treating brain cancer using il-13r alpha 2 peptide-based compositions” (University of Pittsburgh—Of the Commonwealth System of …, priority 2004, dated 2020)
